{
  "source": "patent US10982337B2",
  "about": "“Corrosion inhibition” (SCHLUMBERGER TECHNOLOGY CORPORATION, priority 2015, dated 2021)",
  "key": {"[1]": {"assay": "Corrosion weight loss test on steel coupons in HCl", "parameters": "Pitting Index: scale not given here", "excerpt": "(§1) Such “acceptable” levels of corrosion are application-specific."}, "[2]": {"assay": "Corrosion weight loss test on steel coupons in HCl", "parameters": "Pitting Index: scale not given here", "excerpt": "as §1", "remark": "listed apart in the source"}, "[3]": {"assay": "Corrosion weight loss test on steel coupons in HCl", "parameters": "Pitting Index: scale not given here", "excerpt": "as §1", "remark": "listed apart in the source"}, "[4]": {"assay": "Rotating Cylinder Electrode electrochemistry, charge transfer resistance", "conditions": "5 mM inhibitor, 10 mM KI, 4 mol/L HCl, 2000 rpm, 80° C.; FIG. 6", "excerpt": "(§2) EIS can be used to monitor the corrosion rate of a system. The parameter of interest is the charge transfer resistance, Rct, which can be thought of the ‘resistance’ to corrosion. A metal test piece is used as the working electrode in a three-electrode electrochemical cell with the corrosive solution as electrolyte. Impedance data is obtained by applying a small alternating voltage to the working electrode and measuring the resulting current to obtain a value of impedance. This is done at a range of frequencies. Then, in order to extract the parameter of interest, the metal/inhibitor/electrolyte interfaces are modelled as an electrical equivalent circuit and the theoretical impedance is fitted to the data. […] Charge transfer resistance, Rct, is measured. Charge transfer resistance, Rct is a measure for corrosion resistance, and is inversely proportional to corrosion rate (CR). Therefore 1/Rct is proportional to CR."}, "[5]": {"assay": "Rotating Cylinder Electrode electrochemistry, charge transfer resistance", "conditions": "5 mM inhibitor, 10 mM KI, 4 mol/L HCl, 2000 rpm, 80° C.; FIG. 6", "excerpt": "as §2", "remark": "listed apart in the source"}, "[6]": {"assay": "Rotating Cylinder Electrode electrochemistry, charge transfer resistance", "conditions": "5 mM inhibitor, 10 mM KI, 4 mol/L HCl, 2000 rpm, 80° C.; FIG. 6", "excerpt": "as §2", "remark": "listed apart in the source"}, "[7]": {"assay": "Rotating Cylinder Electrode electrochemistry, charge transfer resistance", "conditions": "5 mM inhibitor, 10 mM KI, 4 mol/L HCl, 2000 rpm, 80° C.; FIG. 6", "excerpt": "as §2", "remark": "listed apart in the source"}, "[8]": {"assay": "Marine algal growth inhibition test ISO 10253", "format": "cell-based, Skeletonema costatum", "conditions": "Skeletonema costatum, cultures of the marine alga Skeletonema costatum; algal growth inhibition, 72 h, WAF in sea water, 10-1000 mg/L tested", "method": "(§3) The acute toxicity of NMHQ to the marine algae Skeletonema costatum was tested. Cultures of the algae Skeletonema costatum were exposed to a series of concentrations of NMHQ. The test was carried out according to ISO protocol ‘ISO 10253 Water quality—Marine algal growth inhibition test with Skeletonema costatum and Phaeodactylum tricornutum’.\n(§4) In addition to blank, concentrations of 10, 100, 1000 mg/L (WAF) in sea water were tested."}, "Skeletonema costatum": {"test_system": "Skeletonema costatum", "assay": "Marine algal growth inhibition test ISO 10253", "format": "cell-based", "method": "as §3, §4"}, "[9]": {"assay": "Corrosion weight loss test on steel coupons in HCl", "quoted_text": "Experiments were carried out with coupons of the following steels: • 22Cr125 also designated 2205, a duplex alloy steel which is an iron-chromium-nickel-molybdenum alloy, used (among other things) to fabricate casing. • HS80™ (TradeMark of TENARIS), a low carbon steel used to fabricate coiled tubing. • N80, a medium carbon steel used to fabricate borehole casing. • 13Cr80, an alloy steel containing 13 wt % chromium without nickel, also used to fabricate borehole casing.\n(1) Metal Type: Duplex Stainless Steel 22Cr125 Casing (2205 b6); 4 mol/L HCl, T=80° C., 3 Hours Exposure"}, "[10]": {"conditions": "0.3000 wt % (10.97 mmol/L), 4 mol/L HCl, 80° C., 3 hours"}},
  "data": [
    {"molecule": "c1ccc2c(c1)CCCN2Cc1cccc2ccccc12", "note": "[NMTHQ]", "values": [
      {"measurement": "Pitting Index", "setting": "[1]; 0.1368 wt % (5.00 mmol/L), no KI, 4 mol/L HCl, 80° C., 3 hours", "result": 3},
      {"measurement": "Pitting Index", "setting": "[1]; 0.1389 wt % (5.08 mmol/L) + KI 10 mmol/L", "result": 0},
      {"measurement": "Pitting Index", "setting": "[1]; 0.2065 wt % (7.55 mmol/L), 4 mol/L HCl, 80° C., 3 hours", "result": 2},
      {"measurement": "Pitting Index", "setting": "[1]; [10]", "result": 0},
      {"measurement": "Pitting Index", "setting": "[1]; 0.3013 wt % (11.02 mmol/L), 4 mol/L HCl, 80° C., 3 hours", "result": 0},
      {"measurement": "Pitting Index", "setting": "[1]; 0.3017 wt % (11.04 mmol/L), 4 mol/L HCl, 80° C., 3 hours", "result": 0},
      {"measurement": "factor by which addition of 10 mM potassium iodide reduces the weight loss", "setting": "[1]; N80, NMTHQ 4.0-5.1 mmol/L", "result": 5.3},
      {"measurement": "Pitting Index", "setting": "[2]; 0.0055 wt % (0.20 mmol/L), 4 mol/L HCl, 80° C., 3 hours", "result": 5},
      {"measurement": "Pitting Index", "setting": "[2]; 0.0273 wt % (1.00 mmol/L), 4 mol/L HCl, 80° C., 3 hours", "result": 2},
      {"measurement": "Pitting Index", "setting": "[2]; 0.11 wt % (4.02 mmol/L), 4 mol/L HCl, 80° C., 3 hours", "result": 0},
      {"measurement": "Pitting Index", "setting": "[2]; 0.1366 wt % (5.00 mmol/L) + KI 10 mmol/L", "result": 0},
      {"measurement": "Pitting Index", "setting": "[2]; 0.1366 wt % (5.00 mmol/L), no KI, 4 mol/L HCl, 80° C., 3 hours", "result": 0},
      {"measurement": "Pitting Index", "setting": "[2]; 0.192 wt % (7.02 mmol/L), 4 mol/L HCl, 80° C., 3 hours", "result": 0},
      {"measurement": "factor by which addition of 10 mM potassium iodide reduces the weight loss", "setting": "[2]; HS80, NMTHQ 4.0-5.1 mmol/L", "result": 8.8},
      {"measurement": "Pitting Index", "setting": "[3]; 0.1367 wt % (5.00 mmol/L), no KI, 4 mol/L HCl, 80° C., 3 hours", "result": 4},
      {"measurement": "Pitting Index", "setting": "[3]; 0.1382 wt % (5.06 mmol/L) + KI 10 mmol/L", "result": 0},
      {"measurement": "Pitting Index", "setting": "[3]; [10]", "result": 0},
      {"measurement": "inhibition performance compared at equivalent molar concentrations (in words)", "setting": "[3]; 13Cr80, 4 mol/L HCl, 80° C., 3 hours", "result": "superior to the known acid corrosion inhibitor, NMQCl"},
      {"measurement": "factor by which addition of 10 mM potassium iodide reduces the weight loss", "setting": "[3]; 13Cr80, NMTHQ 4.0-5.1 mmol/L", "result": 10.5},
      {"measurement": "1/Rct (proportional to corrosion rate), NMHQ compared with NMQCl", "setting": "[4]", "result": "very similar results"},
      {"measurement": "1/Rct (proportional to corrosion rate), NMHQ compared with NMQCl", "setting": "[5]", "result": "very similar results"},
      {"measurement": "1/Rct (proportional to corrosion rate), NMHQ compared with NMQCl", "setting": "[6]", "result": "more effective inhibitor"},
      {"measurement": "1/Rct (proportional to corrosion rate), NMHQ compared with NMQCl", "setting": "[7]", "result": "significant lower"},
      {"measurement": "EC50 at 72 h", "setting": "[8]", "result": "> 1000", "unit": "µg/mL"},
      {"measurement": "EC90 at 72 h", "setting": "[8]", "result": "> 1000", "unit": "µg/mL"},
      {"measurement": "NOEC(72 h)", "setting": "Skeletonema costatum; algal growth inhibition, 72 h, WAF in sea water, 10-1000 mg/L tested", "result": 1000, "unit": "mg/L"},
      {"measurement": "aquatic toxicity (in words)", "setting": "Skeletonema costatum; seawater under neutral conditions (pH 7.7-8.3)", "result": "zero aquatic toxicity"},
      {"measurement": "Pitting Index", "setting": "[9]; 0.11 wt % (4.02 mmol/L) + KI 10 mmol/L, 2205 (b6)", "result": 0},
      {"measurement": "Pitting Index", "setting": "[9]; 0.11 wt % (4.02 mmol/L), no KI, 2205 b6, 4 mol/L HCl, 80° C., 3 hours", "result": 4},
      {"measurement": "Pitting Index", "setting": "[9]; 0.1367 wt % (5.00 mmol/L), KI 0, 2205 (b5)", "result": 4},
      {"measurement": "Pitting Index", "setting": "[9]; 0.1368 wt % (5.00 mmol/L) + KI 20 mmol/L, 2205 (b5)", "result": 0},
      {"measurement": "Pitting Index", "setting": "[9]; 0.1913 wt % (7.00 mmol/L), 2205 b6, 4 mol/L HCl, 80° C., 3 hours", "result": 3},
      {"measurement": "Pitting Index", "setting": "[9]; 0.30 wt % (10.97 mmol/L), 2205 b6, 4 mol/L HCl, 80° C., 3 hours", "result": 0},
      {"measurement": "Pitting Index", "setting": "[9]; 0.547 wt % (20.01 mmol/L), 2205 b6, 4 mol/L HCl, 80° C., 3 hours", "result": 0},
      {"measurement": "inhibition performance compared at equivalent molar concentrations (in words)", "setting": "[9]; 22Cr125, 4 mol/L HCl, 80° C., 3 hours", "result": "very similar to the known acid corrosion inhibitor NMQCl"},
      {"measurement": "factor by which addition of 10 mM potassium iodide reduces the weight loss", "setting": "[9]; 2205 (b6), NMTHQ 4.0-5.1 mmol/L", "result": 9.4}
    ]},
    {"molecule": "naphthylmethylquinolinium chloride [NMQCl, reference compound]", "values": [
      {"measurement": "Pitting Index", "setting": "[1]; 0.1534 wt % (5.02 mmol/L), 4 mol/L HCl, 80° C., 3 hours", "result": 3},
      {"measurement": "Pitting Index", "setting": "[1]; 0.3386 wt % (11.07 mmol/L), 4 mol/L HCl, 80° C., 3 hours", "result": 0},
      {"measurement": "Pitting Index", "setting": "[1]; 0.3394 wt % (11.10 mmol/L), 4 mol/L HCl, 80° C., 3 hours", "result": 0},
      {"measurement": "Pitting Index", "setting": "[2]; 0.0015 wt % (0.05 mmol/L), 4 mol/L HCl, 80° C., 3 hours", "result": 5},
      {"measurement": "Pitting Index", "setting": "[2]; 0.06225 wt % (2.04 mmol/L), 4 mol/L HCl, 80° C., 3 hours", "result": 0},
      {"measurement": "Pitting Index", "setting": "[2]; 0.1531 wt % (5.01 mmol/L), 4 mol/L HCl, 80° C., 3 hours", "result": 0},
      {"measurement": "Pitting Index", "setting": "[2]; 0.3366 wt % (11.01 mmol/L), 4 mol/L HCl, 80° C., 3 hours", "result": 0},
      {"measurement": "Pitting Index", "setting": "[3]; 0.1545 wt % (5.05 mmol/L), 4 mol/L HCl, 80° C., 3 hours", "result": 5},
      {"measurement": "Pitting Index", "setting": "[3]; 0.3466 wt % (11.33 mmol/L), 4 mol/L HCl, 80° C., 3 hours", "result": 0},
      {"measurement": "1/Rct (proportional to corrosion rate), NMHQ compared with NMQCl", "setting": "[4]", "result": "very similar results"},
      {"measurement": "1/Rct (proportional to corrosion rate), NMHQ compared with NMQCl", "setting": "[5]", "result": "very similar results"},
      {"measurement": "Pitting Index", "setting": "[9]; 0.123 wt % (4.03 mmol/L), 2205 b6, 4 mol/L HCl, 80° C., 3 hours", "result": 4},
      {"measurement": "Pitting Index", "setting": "[9]; 0.322 wt % (10.54 mmol/L), 2205 b6, 4 mol/L HCl, 80° C., 3 hours", "result": 0},
      {"measurement": "Pitting Index", "setting": "[9]; 0.612 wt % (20.00 mmol/L), 2205 b6, 4 mol/L HCl, 80° C., 3 hours", "result": 0}
    ]}
  ]
}
